Experimental data as given in PMC11355195 (Life, 2024).
Converted amounts (≈) assume the structure as drawn.

How the values were obtained:
[1] = Oxygen radical absorbance capacity (ORAC); conditions: Trolox equivalents
Description: The ORAC (Oxygen Radical Absorbance Capacity) test was carried out using a modified version of the procedure reported by Huang et al.. This test examines the antioxidant capacity of compounds by examining their ability to neutralize oxygen radicals. The method was carried out utilizing a 96-well microplate format. First, 150 µL of fluorescein solution, produced as 8 × 10^−8 M fluorescein in 0.075 M phosphate buffer (pH 7.4), were dispersed to each well. Fluorescein is a fluorescent probe whose fluorescence lowers when it reacts with radicals. Next, 25 µL of the substance or mixture to be evaluated was added to the corresponding wells. Wells containing 25 µL of phosphate buffer served as blanks, and wells containing 25 µL of Trolox solution (from 10 to 100 µm) were utilized as standards. Control wells containing 50 µL phosphate buffer without any radicals were also added to provide a baseline. The reaction was initiated by adding 25 µL of a freshly produced solution of AAPH (2,2′-azobis(2-methylpropionamidine) dihydrochloride) at a concentration of 165.94 mM in phosphate buffer to each well, except for the control wells, at a temperature of 37 °C. AAPH creates peroxyl radicals that induce oxidative stress in the fluorescein solution, simulating free-radical attack. […] The fluorescence in-tensity of the mixture was then monitored at regular intervals for 120 min.

COX-1 = target: T1, COX-1 (Ovis aries, UniProt P05979); assay: COX-1-catalyzed prostaglandin production inhibition; type: biochemical, ram; conditions: mean ± standard deviation, three replicas; read-out: COX-1 inhibition IC50 (converted)
T1 construct: The COX-1 enzyme was produced from ram seminal vesicles; purchased Cayman Chemical Company, Ann Arbor, MI, USA; host or cells: ram seminal vesicles (tissue)
T1 sequence (P05979 25-600): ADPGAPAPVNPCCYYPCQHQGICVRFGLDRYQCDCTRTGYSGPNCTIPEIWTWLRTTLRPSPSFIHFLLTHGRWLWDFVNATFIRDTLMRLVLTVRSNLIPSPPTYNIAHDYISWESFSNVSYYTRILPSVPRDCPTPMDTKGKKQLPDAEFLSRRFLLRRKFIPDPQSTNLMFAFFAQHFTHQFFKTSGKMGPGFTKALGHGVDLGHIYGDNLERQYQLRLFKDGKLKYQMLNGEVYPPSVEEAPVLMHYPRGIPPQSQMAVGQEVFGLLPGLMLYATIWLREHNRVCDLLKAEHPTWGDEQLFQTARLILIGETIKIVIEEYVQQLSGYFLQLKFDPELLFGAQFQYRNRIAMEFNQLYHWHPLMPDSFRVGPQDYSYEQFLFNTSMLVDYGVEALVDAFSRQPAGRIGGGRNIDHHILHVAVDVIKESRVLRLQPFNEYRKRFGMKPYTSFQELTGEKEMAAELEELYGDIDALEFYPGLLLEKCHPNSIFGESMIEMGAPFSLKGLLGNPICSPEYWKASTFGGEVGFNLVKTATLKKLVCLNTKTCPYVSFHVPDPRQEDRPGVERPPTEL
Description: The COX inhibitory effects of the substances were examined using a COX-1/COX-2-catalyzed prostaglandin production test, using a modified approach by Futaki et al.. The chemicals were dissolved in 4% DMSO to a final concentration of 100 µg/mL.
In this test, one unit of COX-1 or COX-2 enzyme was suspended in a 0.1 M Tris-HCl buffer (pH 7.5) containing hematin ([…]) and phenol (2 mM) as cofactors. The COX-1 enzyme was produced from ram seminal vesicles, while COX-2 was taken from sheep placenta with a purity of 70% (both from Cayman Chemical Company, Ann Arbor, MI, USA). The reaction mixture was preincubated with either the solvent vehicle (4% DMSO) or the test solution for 2 min at 37 °C. […] Arachidonic acid, tagged with radioactive carbon ([1–14C]), serves as a substrate for the COX enzymes. The mixture was then incubated for an additional 2 min at 37 °C. […] The organic solvent phase was removed, and the PGE2 level in the remaining aqueous phase was quantified using a radioimmunoassay with a liquid scintillation counter, which measures the radioactivity (disintegrations per minute, DPM) of the [1–14C]-labeled PGE2. The percentage inhibition of COX-catalyzed prostaglandin production by the test compounds was estimated by comparing the radioactivity of the samples with the solvent vehicle controls. […]

MDA-MB-436 = assay: MTT cell viability, MDA-MB-436; type: cell-based, Human; conditions: Homo sapiens, MDA-MB-436; MTT test; 72 h of treatment (Figure 3); read-out: IC50 Value ± SD, MDA-MB-436
Description: These cell lines were selected to represent distinct sub-types of breast cancer for extensive investigation. […] The medium was added with 10% heat-inactivated fetal calf serum (FCS) to supply vital growth hormones and nutrients necessary for cell proliferation. Additionally, 1% penicillin streptomycin was administered to avoid bacterial contamination, ensuring the sterility and integrity of the cell cultures. The cell cultures were maintained at 37 °C in a humidified environment containing 5% CO2. This controlled environment mimics physiological conditions in the human body, supporting optimal cell development and function. The humidified atmosphere prevents medium evaporation, while the 5% CO2 concentration maintains optimal pH values in the culture medium. These specialized circumstances and methods ensure that the breast cancer cell lines remain healthy and viable for experimental procedures, delivering dependable and reproducible results for research projects. The standard protocols followed for cultivating these cells are crucial for generating consistent and reliable data. Using well-characterized cell lines from a credible source like ATCC ensures the re-liability and comparability of the experimental outcomes.
This approach determines cell viability based on the ability of living cells to decrease MTT to a purple, water-insoluble formazan product. Cells were planted in 96-well plates at a density of 1 × 10^4 cells per well in 100 μL of complete culture media, which provides all necessary nutrients for cell growth. […] The cells were then treated with the compounds for 24, 48, and 72 h to determine the effect on cell viability over varied time intervals. Following each incubation time, 20 μL of MTT solution (at a concentration of 5 mg/mL in PBS) were applied to each well. The plates were further incubated for 4 h at 37 °C, during which time live cells decrease the MTT to formazan, creating purple crystals. At the end of the incubation, the medium containing the MTT was carefully aspirated, leaving only the formazan crystals in the bottom of the wells. […]

IC50 (COX-1): 198 µM
IC50 (MDA-MB-436): 15.8 ± 1.69 µg/mL (≈ 105 µM)
SMILES: Cc1ccc(C(C)C)c(O)c1 [Thymol, 2-isopropyl-5-methylphenol]
Oxygen Radical Absorbance Capacity [1]: 2.341 ± 0.009 mmol TE/g
